One assay addresses T1, Pancreatic CCK Receptor (Rattus norvegicus, UniProt P30551).
T1 construct: the pancreas or cerebral was removed and homogenized; from tissue; host or cells: pancreas of male Sprague-Dawley rats, membrane preparation
T1 sequence (P30551 1-444): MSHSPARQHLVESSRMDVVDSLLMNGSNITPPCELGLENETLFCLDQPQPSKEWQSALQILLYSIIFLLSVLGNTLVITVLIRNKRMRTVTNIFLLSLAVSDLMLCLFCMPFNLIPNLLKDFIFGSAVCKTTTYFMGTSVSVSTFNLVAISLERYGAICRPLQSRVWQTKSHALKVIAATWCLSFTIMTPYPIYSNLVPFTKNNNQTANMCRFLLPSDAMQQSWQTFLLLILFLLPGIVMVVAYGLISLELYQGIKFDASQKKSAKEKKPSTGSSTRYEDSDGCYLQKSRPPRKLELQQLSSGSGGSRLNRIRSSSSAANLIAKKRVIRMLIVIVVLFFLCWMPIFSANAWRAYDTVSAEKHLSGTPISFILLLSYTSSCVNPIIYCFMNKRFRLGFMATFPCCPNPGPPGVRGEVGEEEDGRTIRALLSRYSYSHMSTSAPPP
The assay is described as follows: [125I]CCK8 binding assay, pancreatic membranes. On the set-up: species or system Sprague-Dawley rats. The following applies: [125I]CCK8 0.05 nM, rat pancreas membranes, 90 min, 25° C. On the procedure: Inhibition studies of CCK by specific compounds of the present invention were carried out as follows. Male, Sprague-Dawley rats were sacrificed by decapitation and the pancreas or cerebral was removed and homogenized with a Brinkman Polytron (setting 6, 15 sec). The homogenates were centrifuged twice at 39,000 g for 10 min (4° C.), with an intermediate resuspension in fresh buffer. The final pellets were resuspended in the following buffer for the [^125 I]CCK8 binding assay: 10 mM HEPES, 118 mM NaCL, 4.7 mM KCl, and 5 mM MgCL2, 1 mM EGTA, 5 mg/ml bovine serum albumin, and 0.25 mg/ml bacitracin.
For the [^125 I]CCK8 binding assay, aliquots of the membrane preparations were added to plastic culture tubes containing 0.05 nM [^125 I]CCK8 (2200 Ci/mmol, New England Nulclear Corp ) and various concentrations of the test compounds in a final volume of 0.5 ml. The incubation period was 90 min (25° C.). The binding reaction was terminated by the addition of 4 ml of ice-cold buffer, followed by filtration through Whatman GF/B filters which had been previously soaked in 2% bovine serum albumin. Each tube and filter were then washed three times with 4-ml aliquots of ice-cold buffer. The radioactivity trapped on the filters was counted in an LKB Clini Gamma counter. Specific binding was defined as the total [^125 I]CCK8 bound minus that bound in the presence of 1 μM unlabeled CCK8.
Table 1 sets forth data from inhibition studies of CCK by specific compounds of the present invention in which Ar, m, and A are defined as set forth below: […]

The next assay relates to gastric emptying. Briefly: anti-spasmodic activity: effect on gastric emptying (charcoal meal) after CCK-8 in mice. The class given is in vivo, CF1 mice. As to conditions: for ED50: Mus musculus, anti-spasmodic activity. As for the experimental part:
In vivo studies were made to test the therapeutic effect of α-N-(2-indolylcarbonyl) L-tryptyl-N'-phenylethylglycine (BIM-18216),α-N-(3-quinolylcarbonyl)-L-tryptyl-N'-phenylethylglycine (BIM-18225), α-N-(2-naphthylcarbonyl)-L-tryptyl-N'-phenylethylglycine (BIM-18226), and α-N-(2-indolylcarbonyl) D-tryptyl-N'-phenylethylglycine (BIM-18227). The effect of the foregoing compounds on gastric emptying was measured as the percentage of anti-spasmodic activity. Tests were carried out on female CF1 mice as follows. Mice weighing approximately 20 g were fasted overnight. Test compounds were administered in one of four ways: intraperitoneally (i.p.), subcutaneously (s.c.), intravenously (i.v.), or orally (p.o.). Test compounds administered orally were dissolved in a mixture of 75% by volume polyethylene glycol 400 NF, 15% by volume propylene glycol USP, and 10% by volume purified H2 O USP. For other methods of administration, the test compounds were dissolved in a solution of saline containing 10% DMSO (by volume) for i.v. administration; and in a solution of saline containing 10% DMSO (by volume) and 0.25% methylcellulose (by weight) for s.c. or i.p. administration. Test compounds were administered to the mice 15 minutes prior to administering CCK-8 (40 μg/kg, s.c.). The mice were fed a charcoal meal orally 5 minutes after CCK injection and the animals were sacrificed 5 minutes later. The lengths of the intestines filled with charcoal were measured and the % of anti-spasmodic activity was calculated based upon the lengths according to the following formula: [formula]
Table 2, below, contains data on the anti-spasmodic activity of the compounds tested by oral administration.
Table 3, below, contains data for the test compound BIM-18216 administered in each of the four different ways discussed above.

The mark [1] stands for this setting: Table 2, 125 mg/kg p.o., 15 min before CCK-8 (40 μg/kg, s.c.).
[2] abbreviates: Table 2, 100 mg/kg p.o., 15 min before CCK-8 (40 μg/kg, s.c.).
[3] abbreviates: Table 2, 125 mg/kg p.o., 15 min before CCK-8 (40 μg/kg, s.c.), 125 mg/kg.

Five molecules from US5010089A, “CCK antagonists and their use in treating gastrointestinal disorders” (Biomeasure, Inc., priority 1989, dated 1991) can be followed below.

On to `O=C(O)CN(CCc1ccccc1)C(=O)C(Cc1c[nH]c2ccccc12)NC(=O)c1ccc2ccccc2n1` [2-quinolyl, α-N-(2 quinolylcarbonyl) L-tryptyl-N'-phenylethylglycine], for which the IC50 at Pancreatic CCK Receptor amounted to 170 nM.
As for `O=C(O)CN(CCc1ccccc1)C(=O)C(Cc1c[nH]c2ccccc12)NC(=O)c1cnc2ccccc2c1` [BIM-18225, α-N-(3-quinolylcarbonyl)-L-tryptyl-N'-phenylethylglycine], the “% Anti-Spasmodic Activity” value in the assay with gastric emptying (setting [1]) is listed as 22%.
`O=C(O)CN(CCc1ccccc1)C(=O)C(Cc1c[nH]c2ccccc12)NC(=O)c1ccc2ccccc2c1` [BIM-18226, α-N-(2-naphthylcarbonyl)-L-tryptyl-N'-phenylethylglycine]: the “% Anti-Spasmodic Activity” value is recorded as 35% in the assay with gastric emptying (setting [2]) and 88% in the assay with gastric emptying (setting [1]). The molecule also registered an IC50 on Pancreatic CCK Receptor of 500 nM.
Regarding `O=C(O)CN(CCc1ccccc1)C(=O)C(Cc1c[nH]c2ccccc12)NC(=O)c1cc2ccccc2[nH]1` [BIM-18227, α-N-(2-indolylcarbonyl) D-tryptyl-N'-phenylethylglycine], the entries for the “% Anti-Spasmodic Activity” value with gastric emptying (setting [2]) and in the assay with gastric emptying (setting [3]) were 24% and 60%, respectively. Besides, the IC50 on Pancreatic CCK Receptor was determined as 30 nM.
For the molecule `O=C(O)CN(CCc1ccccc1)C(=O)C(Cc1c[nH]c2ccccc12)NC(=O)c1cc2ccccc2[nH]1` [BIM-18216, α-N-(2-indolylcarbonyl) L-tryptyl-N'-phenylethylglycine], the ED50 with gastric emptying (ip) is 5.8 mg/kg; with gastric emptying (iv), 6.6 mg/kg; with gastric emptying (po) it was 96.7 mg/kg; in the assay on gastric emptying (sc) it was 4.5 mg/kg. Also, the “% Anti-Spasmodic Activity” value is given as 78% with gastric emptying (setting [3]); 1% in the assay on gastric emptying (Table 3, 1 mg/kg i.p., 15 min before CCK-8); 1% in the assay on gastric emptying (Table 3, 1 mg/kg s.c., 15 min before CCK-8); 45% in the assay on gastric emptying (Table 3, 5 mg/kg i.p., 15 min before CCK-8); 36% in the assay with gastric emptying (Table 3, 5 mg/kg i.v., 15 min before CCK-8); 53% with gastric emptying (Table 3, 5 mg/kg s.c., 15 min before CCK-8). Moreover, the “% Anti-Spasmodic Activity” value in the assay on gastric emptying (Table 3, 10 mg/kg i.v., 15 min before CCK-8) was found to be 70%; with gastric emptying (Table 3, 10 mg/kg s.c., 15 min before CCK-8), 75%; in the assay on gastric emptying (Table 3, 25 mg/kg i.p., 15 min before CCK-8), 91%; in the assay on gastric emptying (Table 3, 25 mg/kg i.v., 15 min before CCK-8) it was 123%; with gastric emptying (Table 3, 25 mg/kg s.c., 15 min before CCK-8) it was 108%; in the assay with gastric emptying (Table 3, 50 mg/kg p.o., 15 min before CCK-8), 10%. The “% Anti-Spasmodic Activity” value with gastric emptying (Table 3, 50 mg/kg s.c., 15 min before CCK-8) is reported as 112%; in the assay on gastric emptying (Table 3, 75 mg/kg p.o., 15 min before CCK-8), 47%; in the assay on gastric emptying (Table 3, 100 mg/kg p.o., 15 min before CCK-8) it was 56%; in the assay with gastric emptying (Table 3, 125 mg/kg p.o., 15 min before CCK-8), 81%; with gastric emptying (Table 3, 250 mg/kg p.o., 15 min before CCK-8), 88%; in the assay with gastric emptying (Table 3, 500 mg/kg p.o., 15 min before CCK-8), 105%.

What is called IC50 is the concentration that gives 50% inhibition. Low readings indicate greater potency, high ones weaker potency. For orientation: ED50 means the midpoint of the dose-response relation.
